Measured values published in paper PMC8752738, “A propolis-derived small molecule ameliorates metabolic syndrome in obese mice by targeting the CREB/CRTC2 transcriptional complex” (Nature Communications, 2022).
“And” between values parts separate entries of the source, which are not always exact repeats. Identical values can stand only once.

Columns and labels:
AMPK = assay: Phospho-AMPK immunoblot in primary hepatocytes; type: cell-based, mouse; details: for relative p-AMPK protein, mean: N=3 (0 μM = 1); for relative p-AMPK protein: Supp. fig.3e, individual replicates
Description: (§1) Immunoblotting and immunoprecipitation assays were performed as previously described, with antibodies recognizing CREB, Ser133-P-CREB, AMPK, P-AMPK, AKT, P-AKT (Cell Signaling), PGC-1α (Merck), CRTC2 (Calbiochem), PCK1 (Santa Cruz), SREBP1 (Santa Cruz), SREBP2 (BD), HA (Convance), LXRα (Santa Cruz), FLAG (Sigma), GST (Covance), HIS (Abmart), GAPDH (AOGMA), α-TUBULIN (Abmart), β-ACTIN (Abmart), and other antibodies (Supplementary Table 3). For immunostaining assays, primary cultured hepatocytes seeded on coverslips were fixed with 4% paraformaldehyde for 20 min, permeabilized with 0.3% Triton X-100 in PBS, and then blocked by 5% normal goat serum and 0.3% Triton X-100 in PBS, followed by incubation with anti-CREB (1:1000), anti-P-CREB (1:1000), or anti-HA (1:3000) antibodies for 1 h at 4 °C. Slides were then washed, and after washing, slides were incubated with fluorochrome-conjugated secondary antibodies (Invitrogen). Slides were then washed and mounted with Vectashield mounting media containing 4, 6-diamidino-2-phenylindole (DAPI).
1 Supplementary Figure 3. APC inhibits gluconeogenesis independent of CREB-phosphorylation,
2 cell toxin or AMPK activation. […]
20 e) Phosphate-AMPK level in primary hepatocytes incubated with APC or metformin (MET) at
21 indicated concentrations (0–200 μM) for 30 minutes (top). Relative P-AMPK normalized by AMPK is […]

tissue protein levels = assay: Immunoblotting of tissue proteins in treated mice; type: in vivo, mouse; details: for Relative LXRa/ACTIN, Mean Diff. (VEH vs. treated) / Relative LXRa/ACTIN, Mean 2 (group mean) / Relative LXRa/ACTIN: Figure 7h; for Relative LXRa/ACTIN, Mean 2 (group mean): N2 = 4; for Relative LXRa/ACTIN: single replicates
Description: as §1

[1] = Cholesterol, TG, NEFA and glycerol in serum and liver; type: in vivo, mouse; set-up: liver NEFA, Mean 2 (group mean) / Plasma VLDL cholesterol in db/db mice (VLDL-C) / Plasma VLDL cholesterol in db/db mice, group mean / TC in liver_CT2KO (total cholesterol in the liver of CRTC2-KO) / TC in liver_WT (total cholesterol in the liver) / TC in liver_WT, mean / TC in liver_WT, Mean Diff. VEH vs. drug / TC in liver_CRTC2KO, mean / TC in liver_CRTC2KO, Mean Diff. VEH vs. drug: unit not given here; details: for Plasma total cholesterol, Mean 1 (drug group): N 6
Description: Serum total cholesterol (TC), LDL cholesterol (LDL-C), and HDL cholesterol (HDL-C) levels were detected using commercial kits (Beihua, China), and serum VLDL protein was determined by ELISA (Jiancheng, China).
The plasma TG and NEFA levels were determined using corresponding kits from Beihua (China) and WAKO (Japan), respectively. The TG levels of liver and WAT were tested by TG kit (Applygene, China). The NEFA in the liver and WAT were extracted by chloroform–methanol and then subjected to NEFA assay (WAKO).

HIS-CREB protein = molecular target: T1, HIS-CREB protein (Homo sapiens, UniProt P16220); assay: Isothermal titration calorimetry; type: binding
T1 construct: made in house
Description: Isothermal titration calorimetry was performed using a MicroCal iTC200 calorimeter (Freiburg, Germany). The purified HIS-CREB protein and APC were diluted in buffer (PBS with 500 mM NaCl and 10% glycine, pH 8.0). APC solution was titrated by injection of HIS-CREB. The originally released heat from molecules binding was recorded and analyzed by Origin9 software (Origin Lab) supplied with the instrument.

CREB-CRTC2 interaction = molecular target: T2, CREB-CRTC2 interaction (Homo sapiens, UniProt P16220); assay: CREB–CRTC2 mammalian two-hybrid assay (GAL4-Luc reporter); type: cell-based
T2 construct: expressed in transfected cells; host or cells: HEK293T

[2] = 200 μM (first of two lines printed 200)
[3] = 200 μM (second of two lines printed 200)
[4] = liver, CRTC2KO mice, drug minus VEH
[5] = liver, CRTC2KO mice, group mean, N=4
[6] = liver, WT mice, group mean, N=4

T2 sequence (P16220 whole entry, the tested form may be a part): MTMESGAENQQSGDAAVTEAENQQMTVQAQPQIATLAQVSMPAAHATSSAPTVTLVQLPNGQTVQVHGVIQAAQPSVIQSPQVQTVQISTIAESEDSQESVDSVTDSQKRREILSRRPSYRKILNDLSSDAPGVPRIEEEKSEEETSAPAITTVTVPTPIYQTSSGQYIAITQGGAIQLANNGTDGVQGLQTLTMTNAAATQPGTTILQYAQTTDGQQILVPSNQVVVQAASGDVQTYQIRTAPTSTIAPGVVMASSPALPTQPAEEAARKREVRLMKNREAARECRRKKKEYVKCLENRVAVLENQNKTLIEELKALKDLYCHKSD
T1 sequence (P16220 whole entry): as the sequence (P16220 whole entry, the tested form may be a part) above

Structure (SMILES): CN(C)C(=N)NC(=N)N [MET]
- relative p-AMPK protein, mean (AMPK; 5 μM): 1.096
- relative p-AMPK protein, mean (AMPK; 10 μM): 1.224
- relative p-AMPK protein, mean (AMPK; 100 μM): 1.394
- relative p-AMPK protein, mean (AMPK; [2]): 1.978
- relative p-AMPK protein, mean (AMPK; [3]): 2.005
- relative p-AMPK protein (AMPK; 5 μM): 1.169 (2×) and 0.9483
- relative p-AMPK protein (AMPK; 10 μM): 1.256 and 1.249 and 1.166
- relative p-AMPK protein (AMPK; 100 μM): 1.432 and 1.326 and 1.423
- relative p-AMPK protein (AMPK; [2]): 2.049 and 1.941 and 1.943
- relative p-AMPK protein (AMPK; [3]): 1.966 and 1.951 and 2.098
- relative p-AMPK protein, column mean (AMPK; mean over all concentrations, 0 μM included): 1.449
- Relative LXRa/ACTIN, Mean Diff. (VEH vs. treated) (tissue protein levels; CRTC2KO): 0.07206
- Relative LXRa/ACTIN, Mean 2 (group mean) (tissue protein levels; CRTC2KO): 0.7321
- Relative LXRa/ACTIN (tissue protein levels; CT2KO): 0.7043 and 0.6782 and 0.684 and 0.8619
- Relative LXRa/ACTIN, Mean Diff. (VEH vs. treated) (tissue protein levels; WT): 0.1998
- Relative LXRa/ACTIN, Mean 2 (group mean) (tissue protein levels; WT): 0.6958
- Relative LXRa/ACTIN (tissue protein levels; WT): 0.7209 and 0.7206 and 0.6711 and 0.6705
- SREBP1/ACT IN CT2KO, Mean Diff. vs. VEH (tissue protein levels; [4]): -0.1882
- SREBP2/ACT IN CT2KO, Mean Diff. vs. VEH (tissue protein levels; [4]): -0.07501
- SREBP1/ACT IN CT2KO, mean (tissue protein levels; [5]): 0.4991
- SREBP2/ACT IN CT2KO, mean (tissue protein levels; [5]): 0.6794
- SREBP1/ACT IN CT2KO (related SREBP1 protein levels in CRTC2KO liver) (tissue protein levels; liver, CRTC2KO mice, individual replicates, Supp.fig.5a left): 0.5276 and 0.4764 and 0.5154 and 0.4771
- SREBP2/ACT IN CT2KO (related SREBP2 protein levels in CRTC2KO liver) (tissue protein levels; liver, CRTC2KO mice, individual replicates, Supp.fig.5a right): 0.7097 and 0.717 and 0.6322 and 0.6586
- SREBP1/ACT IN WT, Mean Diff. vs. VEH (tissue protein levels; liver, WT mice, drug minus VEH): -0.1949
- SREBP2/ACT IN WT, Mean Diff. vs. VEH (tissue protein levels; liver, WT mice, drug minus VEH): -0.2245
- SREBP1/ACT IN WT, mean (tissue protein levels; [6]): 0.7683
- SREBP2/ACT IN WT, mean (tissue protein levels; [6]): 0.8001
- SREBP1/ACT IN WT (related SREBP1 protein levels in liver) (tissue protein levels; liver, WT mice, individual replicates, Supp.fig.5a left): 0.8628 and 0.72 and 0.7576 and 0.7329
- SREBP2/ACT IN WT (related SREBP2 protein levels in liver) (tissue protein levels; liver, WT mice, individual replicates, Supp.fig.5a right): 0.85 and 0.793 and 0.7497 and 0.8079
- Plasma total cholesterol, Mean Diff. vs. VEH ([1]; Figure 6h, CRTC2KO mice): 28.04 mg/dL
- Plasma total cholesterol, Mean 1 (drug group) ([1]; Figure 6h, CRTC2KO mice, group mean): 246.8 mg/dL
- TC in plasma_CRTC2KO (plasma total cholesterol) ([1]; Figure 6h, CRTC2KO mice, individual mice): 232.014 mg/dL and 251.349 mg/dL and 216.160 mg/dL and 260.242 mg/dL and 252.895 mg/dL and 268.363 mg/dL
- Plasma total cholesterol, Mean Diff. vs. VEH ([1]; Figure 6h, WT mice): -63.12 mg/dL
- Plasma total cholesterol, Mean 1 (drug group) ([1]; Figure 6h, WT mice, group mean): 215.4 mg/dL
- TC in plasma_WT (plasma total cholesterol) ([1]; Figure 6h, WT mice, individual mice): 184.451 mg/dL and 247.868 mg/dL and 232.401 mg/dL and 156.610 mg/dL and 233.948 mg/dL and 237.041 mg/dL
- TC in liver_CRTC2KO, Mean Diff. VEH vs. drug ([1]; liver, CRTC2-KO mice, VEH minus drug): -4.203
- TG in liver_CT2KO, Mean Diff. vs. VEH ([1]; liver, CRTC2-KO mice, drug minus VEH): 5.139 mg/g protein
- TC in liver_CRTC2KO, mean ([1]; liver, CRTC2-KO mice, group mean (Mean 2), N=6): 55.56
- TG in liver_CT2KO, mean ([1]; liver, CRTC2-KO mice, group mean, N=6): 20.79 mg/g protein
- TG in liver_CT2KO ([1]; liver, CRTC2-KO mice, individual animals, Supp.fig.5c): 21.7349 mg/g protein and 16.8626 mg/g protein and 22.9286 mg/g protein and 13.5919 mg/g protein and 26.3275 mg/g protein and 23.2939 mg/g protein
- TC in liver_WT, Mean Diff. VEH vs. drug ([1]; liver, WT mice, VEH minus drug): 4.549
- TG in liver_WT, Mean Diff. vs. VEH ([1]; liver, WT mice, drug minus VEH): -8.336 mg/g protein
- TC in liver_WT, mean ([1]; liver, WT mice, group mean (Mean 2), N=6): 55.81
- TG in liver_WT, mean ([1]; liver, WT mice, group mean, N=6): 11.62 mg/g protein
- TG in liver_WT ([1]; liver, WT mice, individual animals, Supp.fig.5c): 22.699 mg/g protein and 6.6923 mg/g protein and 14.0154 mg/g protein and 7.7587 mg/g protein and 8.152 mg/g protein and 10.4144 mg/g protein

Structure (SMILES): CCOC(=O)/C=C/c1ccc(O)cc1 [P4, (E)-p-hydroxycinnamic acid ethyl ester]
- direct binding with HIS-CREB proteins (ITC) (HIS-CREB protein): neither directly bound with HIS-CREB proteins
- reporter activity of CREB–CRTC2 two-hybrid assay (CREB-CRTC2 interaction): nor decreased CREB/CRTC2 interaction
